Experimental data published in article PMC12210654, “Palazestrant, a novel oral Complete Estrogen Receptor Antagonist (CERAN) and Selective Estrogen Receptor Degrader (SERD), in patients with ER+/HER2− advanced or metastatic breast cancer: phase 1/2 study results” (Breast Cancer Research : BCR, 2025).
“And” between values parts separate entries of the source, which are not always exact repeats. Identical values can stand only once. “Also recorded” adds a separate entry of the source. Like-named read-outs stand apart in the source and are kept apart here.

What was measured:
ERα = ERα immunohistochemistry (Allred score) of tumor samples; type: in vivo, human; conditions: cycle 3 day 1 (N = 12), all dose levels; baseline 6.67 (N = 18); P = 0.13
Procedure: (§1) All immunohistochemistry analyses from tumor samples were performed at ICON Central Laboratories (Farmingdale, NY, USA) using the Ventana® BenchMark ULTRA™ automated staining instrument (Oro Valley, AZ, USA). Positive- and negative-control tissue and negative reagent controls were run for each marker, as well as low-ER controls for each run. Estrogen receptor levels were estimated as the number of positive tumor nuclei divided by the total number of tumor nuclei, expressed as a percentage for each receptor type. Evaluation of Ki67 was performed in accordance with Ki67 Working Group recommendations: 1) only nuclear staining was assessed as positive; 2) in cases of tumor heterogeneity (hot spots), 2 counts were performed and the average was reported; and 3) lymphocyte-rich areas were avoided when possible. Presence of activating ESR1 mutations (amino acid regions 370–381, 460–473, and 529–538) and their mutant allele fractions (MAFs) were determined in cell-free DNA (cfDNA), collected at baseline and at 8 weeks on treatment using the SafeSEQ Breast Cancer Panel (Sysmex Inostics, Baltimore, MD, USA).
In patients who underwent biomarker testing, samples collected on cycle 3 day 1 of treatment across all dose levels were compared to baseline samples to assess changes during treatment. […]

ER [1] = system: ER; set-up: method as in ref 22 = [22]; 22. Hamilton E, Meisel J, Alemany C, Borges V, Lin NU, Wesolowski R, et al. Preliminary phase 1/2 results from OP-1250-001, a study of OP-1250, an oral CERAN/SERD, in patients with advanced and/or met; conditions: based on estradiol-supplemented preclinical models; cited from earlier work
ESR1 = ESR1 mutations in cell-free DNA (SafeSEQ Breast Cancer Panel); type: in vivo, human
Procedure: as §1
In patients who underwent biomarker testing, samples collected on cycle 3 day 1 of treatment across all dose levels were compared to baseline samples to assess changes during treatment. […] Additionally, the number of endocrine resistance-associated ESR1-variant mutations (Y537S, Y537 N/C, L536H/P/R, and D538G) were reduced from 106 mutations detected at baseline (in 64 patients with detectable mutations at baseline) to 37 mutations (in 21 patients) after 2 treatment cycles of palazestrant treatment (Supplemental Fig. 2 C).
14 Supplemental Figure 2. Biomarker analyses following treatment with palazestrant.
15 Quantitative analyses were performed on patient tissue and blood samples collected at baseline and
16 cycle 3 day 1 of palazestrant treatment.
17 decreased after treatment with palazestrant compared (P=.041). B) ER Allred scores were decreased
18 after treatment with palazestrant (P=.13). C) Sankey diagram showing the number of mutations detected
19 in cfDNA for each ESR1 variant before and after treatment with palazestrant. N = number of patients in
20 the analysis; n= number of mutations.
21 49 (77%) had at least one mutation become “Not detected” at C3D1.
22 ESR1 mutation detected at C1D1, 43 (67%) had all their detected mutation(s) become “Not detected” at […]

[2] = system: ER+/HER2− advanced or metastatic breast cancer; experiment: Antitumor activity: RECIST v1.1 response, CBR, PFS, duration of treatment; type: in vivo, human
Description: Key efficacy end points included assessment of clinical response according to RECIST v1.1; the clinical benefit rate (CBR), defined as the proportion of patients who achieved a complete response (CR), achieved a partial response (PR), or had stable disease (SD) for at least 24 weeks; and progression-free survival (PFS), defined as the time from the date of the first dose to disease progression or death. Biomarker assessments included changes from baseline in circulating tumor DNA (e.g., ESR1 variants) and tumor tissue biomarkers (ERα and Ki67).
All DLT analyses (phase 1a) were performed in patients enrolled in the study during cycle 1 and who either received 75% of the planned palazestrant doses or experienced a DLT during cycle 1. All PK analyses were performed in patients who received at least 1 dose of palazestrant and had adequate postbaseline PK samples for characterization of PK parameters. All safety analyses were performed and PFS assessed in patients who received at least 1 dose of palazestrant. Clinical response (CR or PR) was assessed in patients who received at least 1 cycle of palazestrant, had measurable disease at baseline, and had at least 1 postbaseline tumor assessment. CBR was assessed in patients who received at least 1 cycle of palazestrant, had at least 1 postbaseline tumor assessment, and started their first dose at least 24 weeks before data cutoff. Patients who discontinued study treatment without radiographic progression within 24 weeks from the first dose were not included in the CBR analysis. PK parameters were estimated using conventional noncompartmental methods. For CBR, estimates were accompanied by 2-sided 95% confidence intervals (95% CIs). For PFS, Kaplan–Meier analyses were used to determine medians, event-free rates, and 95% CIs. For all other outcomes, categorical data were analyzed using frequencies and percentages, and continuous data were analyzed using means (standard deviation) or medians (range), as appropriate.

ER [3] = system: ER; set-up: method as in PMID 38102750; conditions: cited from earlier work
[4] = system: ER+/HER2− advanced or metastatic breast cancer; set-up: method as in ref 41 = [41]; 41. Lin NU, Borges VF, Patel MR, Okera M, Meisel J, Wesolowski R, et al. Results from the phase I/II study of OP-1250, an oral complete estrogen receptor (ER) antagonist (CERAN) and selective ER degra; conditions: cited from earlier work
[5] = set-up: method as in PMID 38102750; conditions: preclinical; cited from earlier work
[6] = of 64 patients with an ESR1 mutation detected at C1D1
[7] = 60 mg/day, measurable disease (n = 26)
[8] = 120 mg/day, 66 patients with measurable disease
[9] = 120 mg/day, all patients (n = 86)
[10] = 120 mg/day, patients with ESR1 mutation at baseline (n = 36)
[11] = second- or third-line subanalysis, cancers with ESR1 mutations

SMILES: CCCN1CC(Oc2ccc([C@@H]3c4[nH]c5ccccc5c4C[C@@H](C)N3CC(C)(C)F)cc2)C1 [palazestrant, Palazestrant]
- ERα Allred score on treatment (ERα): 5.17
- predicted efficacy threshold, target (efficacious) exposure, Cmin (ER [1]): 226 ng/mL
- patients with detectable ESR1-variant mutations on treatment (ESR1; after 2 treatment cycles, 64 patients at baseline): 21 patients
- number of endocrine resistance-associated ESR1-variant mutations detected on treatment (ESR1; after 2 treatment cycles, 106 mutations at baseline): 37 mutations
- patients with all detected ESR1 mutation(s) become Not detected at C3D1 (ESR1; [6]): 67%
- patients with at least one ESR1 mutation become Not detected at C3D1 (ESR1; [6]): 77%
- best response observed in dose cohorts ([2]; 60 mg/day and 120 mg/day dose cohorts): Confirmed partial responses; also recorded: confirmed PR
- clinical benefit rate (CBR) ([2]; 60 mg/day, 13 patients with cancers with ESR1 mutations): 23.1%
- clinical benefit rate (CBR) ([2]; 60 mg/day, all evaluable patients (n = 26)): 19% and 19.2%
- confirmed PRs [2, 7]: 7.7%
- total PRs [2, 7]: 11.5%
- unconfirmed PR [2, 7]: 3.8%
- patients remaining on treatment for ≥ 1 year ([2]; 120 mg/day (n = 86)): 7.0%
- patients with a > 30% reduction in tumor size ([2]; 120 mg/day, 8/64): 12.5%
- patients with a reduction in tumor size (percentage change less than zero) ([2]; 120 mg/day, 25/64): 39.1%
- patients remaining on treatment for ≥ 6 months ([2]; 120 mg/day, 32/86): 37.2%
- confirmed PRs [2, 8]: 4.5%
- confirmed PRs including one cPR after the data cutoff date [2, 8]: 6.0%
- total PRs [2, 8]: 7.6%
- unconfirmed PRs [2, 8]: 3.0%
- clinical benefit rate (CBR) ([2]; 120 mg/day, all evaluable patients (n = 70)): 46% and 45.7%
- 6-month PFS rate [2, 9]: 39%
- median progression-free survival (95% CI) [2, 9]: 4.8 months
- CBR in patients who had a reduction in ESR1 mutations ([2]; 120 mg/day, ctDNA available, 8/11): 73%
- CBR in patients who did not have a reduction in ESR1 mutations ([2]; 120 mg/day, ctDNA available, 8/32): 25%
- 6-month PFS rate [2, 10]: 47%
- median progression-free survival (95% CI) [2, 10]: 5.6 months
- clinical benefit rate (CBR) ([2]; 120 mg/day, patients with cancers with ESR1 mutations (n = 29)): 58.6%
- potency in vitro relative to imlunestrant (ER [3]): greater potency in vitro
- median PFS ([4]; 49 patients, second- or third-line therapy with or without prior chemotherapy): 7.2 months
- CBR ([4]; 49 patients, second- or third-line therapy, overall): 48%
- CBR [4, 11]: 59%
- PFS [4, 11]: 7.3 months
- pharmacokinetics relative to fulvestrant and elacestrant [5]: superior pharmacokinetics
